Values of other authors, collected in EP2361606A2, “Oral and tooth care and cleaning agents with ethyl lauroyl arginate” (Henkel AG & Co. KGaA, priority 2010, dated 2011).
Read-outs that look alike come from different tables or passages of the source. Blank lines part the entries; values can stand above or below the substance they belong to.

[1] = in water, 20°C, bound that defines the group of not soluble / soluble zinc salts
[2] = in water, temperature not given, bound that defines the group of soluble inorganic zinc salts

Substance: Zinkbenzoat
Löslichkeit [1]: > 100 mg/L

Substance: Zinkbromid
Löslichkeit (25°C): 820 g/I (25°C)
Löslichkeit [2]: > 100 mg/L

Substance: Zinkchlorid
Löslichkeit (25°C): 4320 g/I (25°C)
Löslichkeit [2]: > 100 mg/L

Substance: Zinkformiat
Löslichkeit [1]: > 100 mg/L

Substance: Zinknitrat-Tetrahydrat
Löslichkeit (result in words, 20°C): Leicht löslich (20°C)

Substance: Zinkoleat
Löslichkeit [1]: < 100 mg/L

Substance: Zinkoxalat
Löslichkeit [1]: < 100 mg/L

Substance: Zinkoxid
Löslichkeit [1]: < 100 mg/L
Löslichkeit (result in words, temperature not given): Unlöslich

Substance: Zinkstearat
Löslichkeit (20°C): 0,9 mg/I (20°C)
Löslichkeit [1]: < 100 mg/L

Substance: Zinksulfat
Löslichkeit [2]: > 100 mg/L

Substance: Zinksulfat-Heptahydat
Löslichkeit (20°C): 960 g/I (20°C)

More lines, now with the values ahead:

Löslichkeit [1]: > 100 mg/L
Substance: Zinkacetat

Löslichkeit (20°C): 430 g/I (20°C)
Substance: Zinkacetat-Dihydrat

Löslichkeit [1]: < 100 mg/L
Substance: Zinkcitrat

Löslichkeit (20°C): 100 g/I (20°C)
Löslichkeit [1]: > 100 mg/L
Substance: Zinkgluconat

Löslichkeit (result in words, 20°C): Fast unlöslich (20°C)
Substance: Zinkhydroxycarbonat

Löslichkeit (20°C): 4500 g/I (20°C)
Löslichkeit [2]: > 100 mg/L
Substance: Zinkiodid

Löslichkeit [1]: > 100 mg/L
Substance: Zinklactat

Löslichkeit [2]: > 100 mg/L
Substance: Zinknitrat

Löslichkeit (20°C): 1843 g/I (20°C)
Substance: Zinknitrat Hexahydrat

Löslichkeit [1]: > 100 mg/L
Substance: Zinksalz der p-Toluolsulfonsäure

Löslichkeit (20°C): ∼350 g/I (20°C)
Substance: Zinksulfat-Monohydrat

Löslichkeit [1]: < 100 mg/L
Substance: Zinktartrat

Löslichkeit [1]: > 100 mg/L
Substance: Zinkvalerat

Löslichkeit [1]: < 100 mg/L
Substance: Zinnlaureat
